Source: patent US20260069696A1, “Combined therapy of photodynamic therapy and immune checkpoint inhibitor” (Shanghai Guang Sheng Pharmaceutical Co., Ltd., priority 2023, published 2026)

System: human esophageal cancer Eca-109 nude mouse xenograft tumor
Assay: Efficacy of DVDMS-PDT combined with PD-1 antibody in mouse model of human esophageal cancer Eca-109
Assay type: in vivo, nu/nu nude mice
Details: Only received DVDMS-PDT, DVDMS 2 mg/kg, laser 70 J/cm2, Day 21
Source text: Example 1. Efficacy of combined therapy of sodium porphyrine-mediated photodynamic therapy (DVDMS-PDT) with PD-1 antibody in a mouse model of human esophageal cancer Eca-109
Purpose: observe the growth-inhibiting effect of DVDMS-PDT combined with PD-1 antibody (Pembrolizumab) on human esophageal cancer Eca-109 nude mouse xenograft tumor, optimize the time window between DVDMS-PDT and PD-1 antibody treatment, and provide a reference for clinical application.
Harvest human esophageal cancer Eca-109 cells at logarithmic growth phase and dilute with culture medium to a cell concentration of 5*10^7 cells/mL, and inoculate subcutaneously at the right thigh root of nude mice at an injection of 0.1 mL per nude mouse. And 7-10 days later, grow the subcutaneous tumor at the root of the thigh on the right side of the nude mouse until the diameter is about 5-8 mm for later use.
Select qualified tumor-bearing mouse models as described above, measure the length and the width of the tumors using a vernier caliper, and stratify and group the mice according to tumor size, with 6 mice in each group. Prepare the sodium porphyrine DVDMS-2 for injection 24 hours before the experiment, and refrigerate in the dark before use. Administer DVDMS-2 via tail vein at a dose of 2 mg/kg body weight (Day-1), followed by PDT treatment 24 hours later (Day 0). […]

C=CC1=C(C)c2cc3[nH]c(cc4nc(cc5[nH]c(cc1n2)c(C)c5C(C)OC(C)C1=C(C)c2cc5[nH]c(cc6nc(cc7[nH]c(cc1n2)c(C)c7CCC(=O)[O-])C(CCC(=O)[O-])=C6C)c(C)c5C=C)C(C)=C4CCC(=O)[O-])c(CCC(=O)[O-])c3C.[Na+].[Na+].[Na+].[Na+] (centres unmarked) [DVDMS-PDT, bis [1-[6,7-sodium dipropionate-1,3,5,8-tetramethyl-2-vinyl-4-porphine]ethyl]ether]
Tumor growth inhibition rate(%): 66.8% | Tumor weight (in g (unit assumed)): 0.43 ± 0.58
